Measured values taken from US9241487B2, “Pyrimidine derivatives and use thereof as pesticides” (BAYER INTELLECTUAL PROPERTY GMBH, priority 2010, dated 2016).

Key:
Format in all cases: in vivo
Phakopsora pachyrhizi = Phakopsora pachyrhizi test (soya bean)/protective; conditions: protective spray, 100 ppm, evaluation 11 days after inoculation
Procedure: Phakopsora pachyrhizi Test (Soya Bean)/Protective
Solvent: 28.5 parts by weight of acetone
Emulsifier: 1.5 part by weight of polyoxyethylene alkylphenyl ether
(§1) To produce a suitable preparation of active compound, 1 part by weight of active compound is mixed with the stated amounts of solvent and emulsifier, and the concentrate is diluted with water to the desired concentration. To test for protective activity, young plants are sprayed with the preparation of active compound at the stated application rate. 1 day after spraying, the plants are inoculated with an aqueous spore suspension of the soya bean rust pathogen (Phakopsora pachyrhizi). The plants are placed in a greenhouse at a temperature of about 20° C. and a relative atmospheric humidity of about 80%. Evaluation follows 11 days after the inoculation. 0% means an efficacy which corresponds to that of the control, whereas an efficacy of 100% means that no infection is observed.
In this test, the following compounds according to the invention show, at an active compound concentration of 100 ppm, an efficacy of 80% or more: […]

Uromyces appendiculatus = experiment: Uromyces test (bean)/protective; conditions: 240 h, protective spray, evaluation 10 days after inoculation, read-out: Efficacy (%)
Procedure: Uromyces Test (Bean)/Protective
Solvents: 24.5 parts by weight of acetone
• 24.5 parts by weight of dimethylacetamide Emulsifier: 1 part by weight of alkylaryl polyglycol ether
To produce a suitable preparation of active compound, 1 part by weight of active compound is mixed with the stated amounts of solvent and emulsifier, and the concentrate is diluted with water to the desired concentration. To test for protective activity, young plants are sprayed with the preparation of active compound at the stated application rate. After the spray coating has dried on, the plants are inoculated with an aqueous spore suspension of the bean rust pathogen Uromyces appendiculatus and then remain in an incubation cabin at about 20° C. and 100% relative atmospheric humidity for 1 day. The plants are then placed in the greenhouse at about 21° C. and a relative atmospheric humidity of about 90%. Evaluation follows 10 days after the inoculation. 0% means an efficacy which corresponds to that of the control, whereas an efficacy of 100% means that no infection is observed.
In this test, the following compounds according to the invention show, at an active compound concentration of 100 ppm, an efficacy of 70% or more: […]

Alternaria solani = experiment: Alternaria test (tomato)/protective; conditions: 168 h, tomato plants, protective spray, evaluation 7 days after inoculation, read-out: Efficacy (%)
Procedure: Alternaria Test (Tomato)/Protective
Solvent: 49 parts by weight of N,N-dimethylformamide
(§2) Emulsifier: 1 part by weight of alkylaryl polyglycol ether
To produce a suitable preparation of active compound, 1 part by weight of active compound is mixed with the stated amounts of solvent and emulsifier, and the concentrate is diluted with water to the desired concentration. To test for protective activity, young tomato plants are sprayed with the preparation of active compound at the stated application rate. 1 day after the treatment, the plants are inoculated with a spore suspension of Alternaria solani and then remain at 100% rd. humidity and 22° C. for 24 h. The plants then remain at 96% rd. atmospheric humidity and a temperature of 20° C. Evaluation is carried out 7 days after the inoculation. 0% means an efficacy which corresponds to that of the control, whereas an efficacy of 100% means that no infection is observed.
In this test, the following compounds according to the invention show, at an active compound concentration of 500 ppm, an efficacy of 70% or more: […]

Pyrenophora teres = Pyrenophora teres test (barley)/protective; conditions: protective spray, evaluation 7-9 days after inoculation
Procedure: Pyrenophora teres Test (Barley)/Protective
Solvent: 49 parts by weight of N,N-dimethylacetamide
as §2
as §1, with “this treatment,” for “spraying,”, “Pyrenophora teres. The plants remain in an incubation cabin at 20° C. and 100% relative atmospheric humidity for 48 hours.” for “the soya bean rust pathogen (Phakopsora pachyrhizi).”, “is carried out 7-9” for “follows 11”

SMILES | Efficacy (%) (Phakopsora pachyrhizi) | pest or weed control at 100 ppm (Uromyces appendiculatus) | pest or weed control at 500 ppm (Alternaria solani) | Efficacy (%) (Pyrenophora teres; 100 ppm) | Efficacy (%) (Pyrenophora teres; 500 ppm)
CC(C)(C)C(O)(COc1ccc(OC(F)(F)F)cc1)c1cncnc1 (stereo not drawn) [Compound 12] | 98% | 100% | 100% | 60% | 95%
CC1(C(O)(COc2ccc(OC(F)(F)F)cc2)c2cncnc2)CC1 (stereo not drawn) [Compound 18] | 98% | 100% | 90% |  | 
CC(C)C(O)(COc1ccc(OC(F)(F)F)cc1)c1cncnc1 (stereo not drawn) [Compound 2] |  | 100% | 100% | 0% | 0%
CC(C)(C)C(O)(COc1ccc(SC(F)(F)F)cc1)c1cncnc1 (stereo not drawn) [Compound 17] | 97% | 100% | 94% |  | 
